Laboratory results published in paper PMC3364120 (British Journal of Cancer, 2012).
Read-outs that look alike come from different tables or passages of the source. Values belong to the compound of their own block, whether it stands above or below them.

Tests used:
[1] = molecular target: T1, OCT-1 (Homo sapiens, UniProt O15245); assay: OCT-1 activity; assay type: cell-based; details: K562; for change in OA / imatinib uptake via OCT-1: NSAID at concentration of Supplementary Table 1, 2 h
T1 sequence (O15245 1-554): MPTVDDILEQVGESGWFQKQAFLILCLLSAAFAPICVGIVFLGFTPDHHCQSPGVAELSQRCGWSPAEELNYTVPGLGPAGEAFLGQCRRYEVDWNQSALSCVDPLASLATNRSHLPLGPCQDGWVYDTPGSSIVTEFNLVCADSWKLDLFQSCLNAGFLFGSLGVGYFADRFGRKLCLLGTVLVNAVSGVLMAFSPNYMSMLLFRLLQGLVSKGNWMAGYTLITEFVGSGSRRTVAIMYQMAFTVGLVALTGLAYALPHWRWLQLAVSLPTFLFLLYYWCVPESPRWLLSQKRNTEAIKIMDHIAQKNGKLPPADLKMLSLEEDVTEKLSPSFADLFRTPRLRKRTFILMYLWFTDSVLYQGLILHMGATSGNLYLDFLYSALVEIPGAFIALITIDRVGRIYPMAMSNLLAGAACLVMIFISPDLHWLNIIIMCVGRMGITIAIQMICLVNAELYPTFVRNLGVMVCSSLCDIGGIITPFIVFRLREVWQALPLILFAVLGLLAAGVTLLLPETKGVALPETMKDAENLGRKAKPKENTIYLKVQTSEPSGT

[2] = molecular target: T1, OCT-1; assay: OCT-1 activity; assay type: cell-based; details: KU812
[3] = molecular target: T1, OCT-1; assay: OCT-1 activity; assay type: cell-based
[4] = test system: KU812 cells; assay: Trypan blue exclusion assay, viable cell number, KU812; assay type: cell-based, human; details: for number of viable cells: 72 hours
[5] = test system: OCT-1 mRNA; assay: RQ-PCR for OCT-1 mRNA levels, KU812; assay type: cell-based, human; details: 2-hour incubation (data not shown)
[6] = test system: hOCT-1; details: 0.5 mM NSAID; transfected S2 cells expressing hOCT-1; ref Khamdang et al, 2002; cited from earlier work
[7] = test system: K562 cells; assay: Trypan blue exclusion assay, viable cell number, K562; assay type: cell-based, human; details: for number of viable cells: 72 hours
[8] = test system: OCT-1 mRNA; assay: RQ-PCR for OCT-1 mRNA levels, K562; assay type: cell-based, human; details: 2-hour incubation (data not shown)
[9] = molecular target: T1, OCT-1; assay: OCT-1 activity; assay type: cell-based; details: MNCs from normal individuals
[10] = ref Siu et al, 2000; Juhlin et al, 2004; Bramlage and Goldis, 2008; cited from earlier work
[11] = test system: chronic myeloid leukaemia; details: imatinib 600 mg per day, ref White et al, 2007b, cited from earlier work
[12] = test system: chronic myeloid leukaemia; details: 7-year update of IRIS; ref Hughes et al, 2010; cited from earlier work

change in OA / imatinib uptake via OCT-1 [1]: no significant impact
change in imatinib uptake via OCT-1 [2]: no significant impact
Structure (SMILES): Cc1ccc(-c2cc(C(F)(F)F)nn2-c2ccc(S(N)(=O)=O)cc2)cc1 [celecoxib]

cases moved from Q1 to a higher OA quartile group ([3]; 15 of 29 Q1 cases, 10 μM diclofenac): 51.7%
percentage of Q1 patients' samples in which OA was increased ([3]; CML MNCs with basal OA <4 ng per 200 000 cells (Q1), n=29, 10 μM diclofenac): 93%
median OA in the presence of diclofenac ([3]; patients with basal OA >4 ng per 200 000 cells, n=21, 10 μM diclofenac, 5.49 without, not significant (P=0.714)): 5.92 ng per 200 000cells
change in OA ([9]; n=10, diclofenac (data not shown)): did not result in a significant change
Structure (SMILES): O=C(O)Cc1ccccc1Nc1c(Cl)cccc1Cl [diclofenac]
number of viable cells ([4]; 10 μM diclofenac + 0.05 μM imatinib): 5.40±0.34 × 10^5 ml^−1
change in cell viability ([4]; diclofenac alone, no imatinib): no significant change
change in level of OCT-1 mRNA [5]: no significant change
effect on OCT-1-mediated TEA uptake [6]: significantly inhibit
number of viable cells ([7]; 10 μM diclofenac + […] imatinib): 7.82±0.56 × 10^5 ml^−1
change in cell viability ([7]; diclofenac alone, no imatinib): no significant change
change in level of OCT-1 mRNA [8]: no significant change
clinically achievable total plasma concentration [10]: 10 µM

reduction in OA ([3]; CP-CML MNCs, 12 cases, 145 μM ibuprofen): 41%
range of OA after treatment ([3]; CP-CML MNCs, n=12, 145 μM ibuprofen): 1.53–7.85 ng per 200 000 cells
average OA after treatment ([3]; CP-CML MNCs, n=12, 145 μM ibuprofen, 7.53±0.82 before): 4.30±0.52 ng per 200 000 cells
OA, % of vehicle control ([1]; 145 μM ibuprofen, 2 h): 48%
decrease in OA ([9]; n=6, ibuprofen): 50%
range of OA post treatment ([9]; n=6, ibuprofen): 1.41–2.82 ng per 200 000 cells
OA post treatment ([9]; n=6, ibuprofen, 3.70±0.45 before): 1.83±0.26 ng per 200 000 cells
OA, % of vehicle control ([2]; 145 μM ibuprofen, 2 h): 59%
Structure (SMILES): CC(C)Cc1ccc(C(C)C(=O)O)cc1 (centres unmarked) [ibuprofen]
number of viable cells ([4]; 145 μM ibuprofen + 0.1 μM imatinib): 7.23±0.78 × 10^5 ml^−1
change in level of OCT-1 mRNA [5]: no significant change
effect on OCT-1-mediated TEA uptake [6]: significantly inhibit
number of viable cells ([7]; 145 μM ibuprofen + 0.5 μM imatinib): 8.16±1.01 × 10^5 ml^−1
change in level of OCT-1 mRNA [8]: no significant change

Structure (SMILES): Cc1ccc(NC(=O)c2ccc(CN3CCN(C)CC3)cc2)cc1Nc1nccc(-c2cccnc2)n1 [imatinib]
number of viable cells ([4]; 0.05 μM imatinib alone): 8.40±0.74 × 10^5 ml^−1
number of viable cells ([4]; 0.1 μM imatinib alone): 4.97±0.47 × 10^5 ml^−1
percentage of patients achieving major molecular response (MMR) by 24 months ([11]; patients with high OA): 85%
percentage of patients achieving major molecular response (MMR) by 24 months ([11]; patients with low OA): 45%
number of viable cells ([7]; 0.5 μM imatinib alone): 4.88±0.96 × 10^5 ml^−1
overall event-free survival [12]: 81%
transformation-free survival (to accelerated phase/blast crisis) [12]: 93%

Structure (SMILES): COc1ccc2c(c1)c(CC(=O)O)c(C)n2C(=O)c1ccc(Cl)cc1 [indomethacin]
effect on OCT-1-mediated TEA uptake [6]: significantly inhibit

change in OA / imatinib uptake via OCT-1 [1]: no significant impact
change in imatinib uptake via OCT-1 [2]: no significant impact
Structure (SMILES): CS(=O)(=O)c1ccc(C2=C(c3ccccc3)C(=O)OC2)cc1 [rofecoxib]

Structure (SMILES): CC1=C(CC(=O)O)c2cc(F)ccc2/C1=C\c1ccc([S+](C)[O-])cc1 (centres unmarked) [sulindac]
effect on OCT-1-mediated TEA uptake [6]: significantly inhibit
